What was measured:
human 15-PGDH = target: T1, human 15-PGDH (Homo sapiens, UniProt P15428); assay: Evaluation of 15-PGDH inhibitory activity (fluorescence enzyme assay, NAD+/PGE2); assay type: biochemical; conditions: human 15-PGDH enzyme, fluorescence Vmax
T1 construct: purchased R&D System 5660-DH
T1 sequence (P15428 1-266): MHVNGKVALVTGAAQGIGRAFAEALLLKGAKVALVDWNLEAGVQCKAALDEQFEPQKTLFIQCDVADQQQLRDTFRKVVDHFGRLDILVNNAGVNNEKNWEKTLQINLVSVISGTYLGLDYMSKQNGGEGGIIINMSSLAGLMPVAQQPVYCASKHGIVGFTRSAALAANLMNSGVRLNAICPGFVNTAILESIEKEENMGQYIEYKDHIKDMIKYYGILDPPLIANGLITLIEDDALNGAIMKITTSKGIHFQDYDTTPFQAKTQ
Description: 15-PGDH inhibition activity of Example compounds was measured as follows. 6.7 ng of human 15-PGDH (R&D System# 5660-DH) enzyme (10 µL) was added to a black 96 well plate, 60 µL of buffer (50 mM Tris-HCl, pH 7.5, 0.01% Tween 20) was added, and 10 µL of 200 µM β-Nicotinamide adenine dinucleotide sodium salt (Sigma, Cat# N0632-5G) was added. 10 µL of (10x) compound solution in DMSO was added and reacted for 10 minutes at room temperature.

A549 cells = assay: Measurement of PGE2-increasing activity in A549 cells (IL-1β stimulated, PGE2 quantified in supernatant); assay type: cell-based; conditions: Homo sapiens, 24 h; concentration of 1 µM of each compound; IL-1β treated A549 cells; read-out: Increased PGE2 production in A549 cells
Summary of the method: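 A549 cells grown 24 h in F12K with 10% FBS, then switched to serum-free medium with or without IL-1β and compound (0.1% DMSO final). After 24 h at 37 °C, 5% CO2, supernatant PGE2 quantified by immunoassay.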

Compound | IC50 (human 15-PGDH) [nM] | fold induction at 1 µM (A549 cells)
O=C(c1cnn2c(Nc3cc(=O)[nH]cn3)cccc12)N1CCCCC1 [Example 235, 4-[[3-(piperidine-1-carbonyl)pyrazolo[1,5-a]pyridin-7-yl]amino]-1H-pyrimidin-6-one] | ≤ 100 | > 1.5
O=C(c1cnn2c(-c3cnc(-c4nnc(C(F)F)[s+]4[O-])nc3)cccc12)N1CCCCC1 (centres unmarked) [Example 404, [7-[2-[5-(difluoromethyl)-1-oxo-1,3,4-thiadiazol-2-yl]pyrimidin-5-yl]pyrazolo[1,5-a]pyridin-3-yl]-(1-piperidyl)methanone] | ≤ 100 | > 1.5
CN1CC(NC(=O)c2cncc(-c3cccc4c(C(=O)N5CCCCC5)cnn34)c2)C1 [Example 202, N-(1-methylazetidin-3-yl)-5-[3-(piperidine-1-carbonyl)pyrazolo[1,5-a]pyridin-7-yl]pyridine-3-carboxamide] | ≤ 100 | > 1.5
CN1Cc2ccc(-c3cccc4c(C(=O)N5CCC(F)CC5)cnn34)cc2C1=O [Example 231, 6-(3-(4-fluoropiperidine-1-carbonyl)pyrazolo[1,5-a]pyridin-7-yl)-2-methylisoindolin-1-one] | ≤ 100 | > 1.5
O=C1NC(=O)/C(=C/c2cccc(-c3cccc4c(C(=O)N5CCCCC5)cnn34)c2)S1 [Example 119, (Z)-5-(3-(3-(piperidine-1-carbonyl)pyrazolo[1,5-a]pyridin-7-yl)benzylidene)thiazolidine-2,4-dione] | ≤ 100 | > 1.5
O=C(COc1ccc(Cl)cc1)Nc1cncc(-c2cccc3c(C(=O)N4CCCCC4)cnn23)c1 [Example 406, 2-(4-chlorophenoxy)-N-(5-(3-(piperidine-1-carbonyl)pyrazolo[1,5-a]pyridin-7-yl)pyridin-3-yl)acetamide] | ≤ 100 | > 1.5
O=C(c1ncc(-c2cccc3c(C(=O)N4CCCCC4)cnn23)cc1Cl)N1CCC1 [Example 286, [7-[6-(azetidine-1-carbonyl)-5-chloro-3-pyridyl]pyrazolo[1,5-a]pyridin-3-yl]-(1-piperidyl)methanone] | ≤ 100 | > 1.5

Continued, in another order:

IC50 (human 15-PGDH) [nM] | Compound | fold induction at 1 µM (A549 cells)
≤ 100 | O=C(c1cnn2c(-c3cnn(Cc4ncon4)c3)cccc12)N1CCCCC1 [Example 395, (7-(1-((1,2,4-oxadiazol-3-yl)methyl)-1H-pyrazol-4-yl)pyrazolo[1,5-a]pyridin-3-yl)(piperidin-1-yl)methanone] | > 1.5
≤ 100 | O=C(c1cnn2c(-c3ccc(-c4nnco4)cc3)cccc12)N1CCCCC1 [Example 350, [7-[4-(1,3,4-oxadiazol-2-yl)phenyl]pyrazolo[1,5-a]pyridin-3-yl]-(1-piperidyl)methanone] | > 1.5
≤ 100 | Cn1nc2cc(-c3cccc4c(C(=O)N5CCCCC5)cnn34)ccn2c1=O [Example 252, 2-methyl-7-(3-(piperidine-1-carbonyl)pyrazolo[1,5-a]pyridin-7-yl)-[1,2,4]triazolo[4,3-a]pyridin-3(2H)-one] | > 1.5
≤ 100 | Cc1cnc(-c2ccc(-c3cccc4c(C(=O)N5CCCCC5)cnn34)cc2)s1 [Example 351, [7-[4-(5-methylthiazol-2-yl)phenyl]pyrazolo[1,5-a]pyridin-3-yl]-(1-piperidyl)methanone] | > 1.5
≤ 100 | Cn1nccc1-c1ccc(-c2cccc3c(C(=O)N4CCCCC4)cnn23)cc1 [Example 300, [7-[4-(2-methylpyrazol-3-yl)phenyl]pyrazolo[1,5-a]pyridin-3-yl]-(1-piperidyl)methanone] | < 1.5
≤ 100 | O=C(c1cnn2c(-c3cccc(F)n3)cccc12)N1CCCCC1 [Example 271, (7-(6-fluoropyridin-2-yl)pyrazolo[1,5-a]pyridin-3-yl)(piperidin-1-yl)methanone] | > 1.5
